Test system: diabetic leg ulcer
Assay: Case report: treatment of a diabetic leg ulcer
Format: in vivo, human
Source text: FIG. 1-6 are a series of 6 pictures taken sequentially after treatment of a leg ulcer, which had persisted for over 6 months without healing, using the dry dressing described herein that contained human cellular fibronectin (cFN).
The cFN dressing was held on with either a 4×4 sponge and tape or with a BAND-AID™ (adhesive bandage).
A few months after the lesion occurred, a dermatologist obtained a biopsy sample, and the ulcer became infected, resulting in a larger lesion that was greatly inflamed. The lesion was treated with Avelox™. It appeared to heal in a few months, when the patient removed what appeared to be dead skin. The lesion opened again, and the patient treated it with Neosporin, Iodine, and Merthiolate. The dermatologist took a swab of the lesion. After the patient used the Bactro-Ban (Muciprocin) recommended by the dermatologist for two weeks, the wound became worse so the patient sealed it with Merthiolate. A bleeding lesion the size of a nickel persisted. The patient began treatment with cFN wound dressing of Example 2 about two weeks later, changing the dressing every 48 hours except for the first day. (The first change was at 24 hours). For the first 4 days, the material was fixed to the wound with a 4×4 gauze pad and an ACE bandage, then with a Band-Aid. […]

`C/C(=C\C(=O)OCCCCCCCCC(=O)O)C[C@@H]1OC[C@H](C[C@@H]2O[C@H]2[C@@H](C)[C@H](C)O)[C@@H](O)[C@H]1O` [Bactro-Ban, Muciprocin] was tested. Which lesion size (FIG. 1, after wound was treated for two weeks) did it give?
Its lesion size is 12-15 mm.

And the wound outcome (used for two weeks)?
Its wound outcome is “became worse”.

— patent publication US8377468B2, “Dry wound dressing and drug delivery system” (Rexaderm, Inc., priority 2006, dated 2013)
